# Measured values from ChEMBL document CHEMBL5390220, “SAR study of niclosamide derivatives for neuroprotective function in SH-SY5Y neuroblastoma” (Bioorg Med Chem Lett, 2023).
# Active and inactive are the calls of the source. No cut-off for these calls is given here.
# Test system: SH-SY5Y
# Test: Neuroprotective activity against human SH-SY5Y cells assessed as reduction in cleaved PARP level incubated for 24 hrs in presence of MG132 by Western blot analysis
# Assay type: functional, cell-based
row,SMILES,Activity
1,O=C(Nc1ccc(C(F)(F)F)cc1Cl)c1cc(Cl)ccc1O,Active
2,O=C(Nc1ccc([N+](=O)[O-])cc1)c1cc(Cl)ccc1O,Active
3,CC(=O)Nc1ccc(NC(=O)c2cc(Cl)ccc2OC(C)=O)c(Cl)c1,inactive
4,O=C(Nc1ccc([N+](=O)[O-])cc1Cl)c1cc(Cl)ccc1O,Active
5,[N-]=[N+]=Nc1ccc(NC(=O)c2cc(Cl)ccc2O)c(Cl)c1,Active

# Test system: SH-SY5Y
# Test: Neuroprotective activity against human SH-SY5Y cells assessed as reduction in protein ubiquitination level incubated for 24 hrs in presence of MG132 by Western blot analysis
# Assay type: functional, cell-based
row,SMILES,Activity
1,O=C(Nc1ccc([N+](=O)[O-])cc1Cl)c1ccccc1,inactive
2,O=C(Nc1ccc(C(F)(F)F)cc1Cl)c1cc(Cl)ccc1O,Active
3,O=C(Nc1ccc([N+](=O)[O-])cc1)c1cc(Cl)ccc1O,Active
4,CC(=O)Oc1ccc(Cl)cc1C(=O)Nc1ccc([N+](=O)[O-])cc1Cl,Active
5,CC(=O)Nc1ccc(NC(=O)c2cc(Cl)ccc2OC(C)=O)c(Cl)c1,inactive
6,O=C(Nc1ccc([N+](=O)[O-])cc1Cl)c1cc(Cl)ccc1O,Active
7,[N-]=[N+]=Nc1ccc(NC(=O)c2cc(Cl)ccc2O)c(Cl)c1,Active

# Test system: SH-SY5Y
# Test: Neuroprotective activity against human SH-SY5Y cells assessed as inhibition of p53 expression incubated for 24 hrs in presence of MG132 by Western blot analysis
# Assay type: functional, cell-based
row,SMILES,inhibition
1,O=C(Nc1ccccc1)c1cc(Cl)ccc1O,inactive
2,O=C(Nc1ccc(C(F)(F)F)cc1Cl)c1cc(Cl)ccc1O,Active
3,O=C(Nc1ccc([N+](=O)[O-])cc1)c1cc(Cl)ccc1O,Active
4,O=C(Nc1ccc([N+](=O)[O-])cc1Cl)c1ccccc1O,Active
5,CC(=O)Oc1ccc(Cl)cc1C(=O)Nc1ccc([N+](=O)[O-])cc1Cl,Active
6,CC(=O)Nc1ccc(NC(=O)c2cc(Cl)ccc2OC(C)=O)c(Cl)c1,inactive
7,O=C(Nc1ccc([N+](=O)[O-])cc1Cl)c1cc(Cl)ccc1O,Active
8,Nc1ccc(NC(=O)c2ccccc2O)cc1,inactive
9,[N-]=[N+]=Nc1ccc(NC(=O)c2cc(Cl)ccc2O)c(Cl)c1,Active

# Test system: SH-SY5Y
# Test: Neuroprotective activity against human SH-SY5Y cells assessed as inhibition of CHOP expression incubated for 24 hrs in presence of MG132 by Western blot analysis
# Assay type: functional, cell-based
row,SMILES,inhibition
1,O=C(Nc1ccc(C(F)(F)F)cc1Cl)c1cc(Cl)ccc1O,Active
2,O=C(Nc1ccc([N+](=O)[O-])cc1)c1cc(Cl)ccc1O,Active
3,O=C(Nc1ccc([N+](=O)[O-])cc1Cl)c1ccccc1O,Active
4,CC(=O)Oc1ccc(Cl)cc1C(=O)Nc1ccc([N+](=O)[O-])cc1Cl,Active
5,CC(=O)Nc1ccc(NC(=O)c2cc(Cl)ccc2OC(C)=O)c(Cl)c1,inactive
6,O=C(Nc1ccc([N+](=O)[O-])cc1Cl)c1cc(Cl)ccc1O,Active
7,[N-]=[N+]=Nc1ccc(NC(=O)c2cc(Cl)ccc2O)c(Cl)c1,Active

# Test system: SH-SY5Y
# Test: Neuroprotective activity against human SH-SY5Y cells assessed as reduction in cyclin D expression incubated for 24 hrs in presence of MG132 by Western blot analysis
# Assay type: functional, cell-based
row,SMILES,Activity
1,O=C(Nc1ccc(C(F)(F)F)cc1Cl)c1cc(Cl)ccc1O,Active
2,O=C(Nc1ccc([N+](=O)[O-])cc1)c1cc(Cl)ccc1O,Active
3,O=C(Nc1ccc([N+](=O)[O-])cc1Cl)c1ccccc1O,Active
4,CC(=O)Oc1ccc(Cl)cc1C(=O)Nc1ccc([N+](=O)[O-])cc1Cl,Active
5,CC(=O)Nc1ccc(NC(=O)c2cc(Cl)ccc2OC(C)=O)c(Cl)c1,inactive
6,[N-]=[N+]=Nc1ccc(NC(=O)c2cc(Cl)ccc2O)c(Cl)c1,Active
